Reference: patent US20260028328A1, “HETEROARYL DERIVATIVES AS DDRs INHIBITORS” (CHIESI FARMACEUTICI S.P.A., priority 2022, published 2026)

Legend:
[1] = target: DDR1 (Homo sapiens (Human), UniProt Q08345); assay: DDR1 binding assay (LanthaScreen Europium Kinase Binding assay); settings: 5 nM DDR1, 20 nM Kinase Tracer 178, 1 h at rt; Ki from IC50 by Cheng-Prusoff; read-out: Ki DDR1
Procedure: (§1) DDR1 and DDR2 binding assays were performed using Life Technologies LanthaScreen™ Europium Kinase Binding assay. The compounds were incubated with 5 nM DDR1 (Carna Biosciences) or 5 nM DDR2 (Life Technologies) for 1 h at rt in white 384-well OptiPlate (PerkinElmer), containing 20 nM or 10 nM Kinase Tracer 178 respectively and 2 nM Europium labelled anti-GST antibody (Life Technologies) in assay buffer (50 mM HEPES pH 7.5, 10 mM MgCI2, 1 mM EGTA and 0.01% BRIJ35). The ratio of fluorescence emission 665 nm/615 nm after excitation at 340 nm was obtained using the Tecan Spark 20M plate reader. IC50 values were determined in GraphPad Prism 7.0 software, using 4 parameter model: log(inhibitor) vs. response. IC50 values were converted in Ki using the Cheng-Prusoff equation (Ki=IC50/(1+[Tracer]/Kd).

[2] = target: DDR2 (Homo sapiens (Human), UniProt Q16832); assay: DDR2 binding assay (LanthaScreen Europium Kinase Binding assay); settings: 5 nM DDR2, 10 nM Kinase Tracer 178, 1 h at rt; Ki from IC50 by Cheng-Prusoff; read-out: Ki DDR2
Procedure: as §1

Chain of DDR2 (Q16832 22-855): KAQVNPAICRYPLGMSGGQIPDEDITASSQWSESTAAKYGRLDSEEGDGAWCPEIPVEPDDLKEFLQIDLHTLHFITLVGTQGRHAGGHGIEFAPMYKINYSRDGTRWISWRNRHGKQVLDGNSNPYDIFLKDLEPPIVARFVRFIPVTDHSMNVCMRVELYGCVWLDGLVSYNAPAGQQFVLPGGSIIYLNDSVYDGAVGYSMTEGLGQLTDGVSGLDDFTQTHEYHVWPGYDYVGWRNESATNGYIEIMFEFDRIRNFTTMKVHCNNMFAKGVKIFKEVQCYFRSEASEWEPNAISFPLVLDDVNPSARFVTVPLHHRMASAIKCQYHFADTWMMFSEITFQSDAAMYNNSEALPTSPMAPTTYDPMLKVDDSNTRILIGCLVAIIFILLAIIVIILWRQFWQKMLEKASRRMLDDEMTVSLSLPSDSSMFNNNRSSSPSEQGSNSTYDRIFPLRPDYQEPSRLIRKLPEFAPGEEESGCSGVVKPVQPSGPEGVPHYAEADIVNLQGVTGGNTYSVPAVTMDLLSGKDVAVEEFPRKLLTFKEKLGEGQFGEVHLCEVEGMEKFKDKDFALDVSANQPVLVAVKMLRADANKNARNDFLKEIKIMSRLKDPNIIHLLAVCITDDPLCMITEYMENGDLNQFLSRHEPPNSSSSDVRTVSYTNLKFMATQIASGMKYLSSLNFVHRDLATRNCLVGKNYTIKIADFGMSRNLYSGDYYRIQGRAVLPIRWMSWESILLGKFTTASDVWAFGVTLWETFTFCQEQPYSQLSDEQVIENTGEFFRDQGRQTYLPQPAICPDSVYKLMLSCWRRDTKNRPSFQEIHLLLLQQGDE
Chain of DDR1 (Q08345 19-913): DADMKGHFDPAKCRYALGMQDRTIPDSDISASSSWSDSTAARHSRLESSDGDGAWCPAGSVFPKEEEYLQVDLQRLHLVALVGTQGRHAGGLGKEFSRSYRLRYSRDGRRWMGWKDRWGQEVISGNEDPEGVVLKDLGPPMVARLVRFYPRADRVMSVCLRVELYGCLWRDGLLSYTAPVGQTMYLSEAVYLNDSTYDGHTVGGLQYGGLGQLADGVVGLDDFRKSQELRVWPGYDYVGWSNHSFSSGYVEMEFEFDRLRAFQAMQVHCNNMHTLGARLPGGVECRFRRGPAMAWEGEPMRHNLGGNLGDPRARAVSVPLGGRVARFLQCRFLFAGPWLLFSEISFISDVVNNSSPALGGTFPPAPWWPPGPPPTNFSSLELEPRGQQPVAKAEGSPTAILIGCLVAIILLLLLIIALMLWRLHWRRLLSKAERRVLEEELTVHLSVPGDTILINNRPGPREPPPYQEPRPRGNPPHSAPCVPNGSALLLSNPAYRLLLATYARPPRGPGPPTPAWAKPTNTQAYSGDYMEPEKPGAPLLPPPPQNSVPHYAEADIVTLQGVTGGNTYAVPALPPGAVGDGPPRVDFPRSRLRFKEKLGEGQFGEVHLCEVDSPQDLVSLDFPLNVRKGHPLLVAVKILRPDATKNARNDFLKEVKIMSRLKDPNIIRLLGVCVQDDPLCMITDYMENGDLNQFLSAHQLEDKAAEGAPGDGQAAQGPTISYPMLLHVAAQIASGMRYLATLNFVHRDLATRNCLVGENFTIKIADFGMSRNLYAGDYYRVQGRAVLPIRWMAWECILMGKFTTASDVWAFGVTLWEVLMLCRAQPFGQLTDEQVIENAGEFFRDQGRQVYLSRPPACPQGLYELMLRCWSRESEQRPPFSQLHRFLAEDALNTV

Compound | Ki [1] | Ki [2]
Cc1ccc(C(=O)Nc2cncc(C(F)(F)F)c2)cc1OC1CN(c2cnn3ccc(N4CCOCC4)nc23)C1 [Example 170, 4-methyl-3-((1-(5-morpholinopyrazolo[1,5-a]pyrimidin-3-yl)azetidin-3-yl)oxy)-N-(5-(trifluoromethyl)pyridin-3-yl)benzamide] | < 5 nM | 5 to 25 nM
COc1ccc(OC(F)(F)F)cc1NC(=O)c1ccc(C)c(OC2CN(c3cnn4ccncc34)C2)c1 [Example 158, N-(2-methoxy-5-(trifluoromethoxy)phenyl)-4-methyl-3-((1-(pyrazolo[1,5-a]pyrazin-3-yl)azetidin-3-yl)oxy)benzamide] | < 5 nM | 5 to 25 nM
Cc1ccc(C(=O)Nc2cncc(C(F)(F)F)c2)cc1CC1CN(c2cnn3ccncc23)C1 [Example 171, 4-methyl-3-((1-(pyrazolo[1,5-a]pyrazin-3-yl)azetidin-3-yl)methyl)-N-(5-(trifluoromethyl)pyridin-3-yl)benzamide] | < 5 nM | < 5 nM
Cc1ccc(C(=O)Nc2cncc(C(F)(F)F)c2)cc1NC1CN(c2cnc3cnccn23)C1 [Example 147, 3-((1-(imidazo[1,2-a]pyrazin-3-yl)azetidin-3-yl)amino)-4-methyl-N-(5-(trifluoromethyl)pyridin-3-yl)benzamide] | < 5 nM | < 5 nM
Cc1ccc(C(=O)Nc2cncc(C(F)(F)F)c2)cc1OC1CN(c2cnn3ccc(N4CCN(C)CC4)nc23)C1 [Example 166, 4-methyl-3-((1-(5-(4-methylpiperazin-1-yl)pyrazolo[1,5-a]pyrimidin-3-yl)azetidin-3-yl)oxy)-N-(5-(trifluoromethyl)pyridin-3-yl)benzamide] | < 5 nM | 5 to 25 nM
Cc1ccc(C(=O)Nc2cc(C(C)(C)C)on2)cc1OC1CN(c2cnn3ccncc23)C1 [Example 155, N-(5-(tert-butyl)isoxazol-3-yl)-4-methyl-3-((1-(pyrazolo[1,5-a]pyrazin-3-yl)azetidin-3-yl)oxy)benzamide] | < 5 nM | < 5 nM
O=C(Nc1cncc(C(F)(F)F)c1)c1ccc(OC(F)F)c(NC2CN(c3cnn4ccncc34)C2)c1 [Example 181, 4-(difluoromethoxy)-3-((1-(pyrazolo[1,5-a]pyrazin-3-yl)azetidin-3-yl)amino)-N-(5-(trifluoromethyl)pyridin-3-yl)benzamide] | < 5 nM | 5 to 25 nM
Cc1ccc(OC(F)(F)F)cc1NC(=O)c1ccc(C)c(OC2CN(c3cnn4ccncc34)C2)c1 [Example 159, 4-methyl-N-(2-methyl-5-(trifluoromethoxy)phenyl)-3-((1-(pyrazolo[1,5-a]pyrazin-3-yl)azetidin-3-yl)oxy)benzamide] | < 5 nM | 5 to 25 nM
CCc1cc(NC(=O)c2ccc(C)c(OC3CN(c4cnn5ccncc45)C3)c2)no1 [Example 152, N-(5-ethylisoxazol-3-yl)-4-methyl-3-((1-(pyrazolo[1,5-a]pyrazin-3-yl)azetidin-3-yl)oxy)benzamide] | 5 to 25 nM | 25 to 100 nM
Cc1ccc(C(=O)Nc2cncc(C(F)(F)F)c2)cc1S(=O)(=O)C1CN(c2cnn3ccncc23)C1 [Example 179, 4-methyl-3-((1-(pyrazolo[1,5-a]pyrazin-3-yl)azetidin-3-yl)sulfonyl)-N-(5-(trifluoromethyl)pyridin-3-yl)benzamide] | 5 to 25 nM | 25 to 100 nM
Cc1ccc(C(=O)Nc2cncc(C(F)(F)F)c2)cc1OC1CN(c2cncnc2)C1 [Example 135, 4-methyl-3-((1-(pyrimidin-5-yl)azetidin-3-yl)oxy)-N-(5-(trifluoromethyl)pyridin-3-yl)benzamide] | < 5 nM | 5 to 25 nM
Cc1ccc(C(=O)Nc2cncc(C(F)(F)F)c2)cc1NC1CN(c2cnn3ccncc23)C1 [Example 140, 4-methyl-3-((1-(pyrazolo[1,5-a]pyrazin-3-yl)azetidin-3-yl)amino)-N-(5-(trifluoromethyl)pyridin-3-yl)benzamide] | < 5 nM | 5 to 25 nM
Cc1ccc(C(=O)Nc2cncc(C(F)(F)F)c2)cc1OC1CN(c2ncnc3[nH]cc(C#N)c23)C1 [Example 173, 3-((1-(5-cyano-7H-pyrrolo[2,3-d]pyrimidin-4-yl)azetidin-3-yl)oxy)-4-methyl-N-(5-(trifluoromethyl)pyridin-3-yl)benzamide] | < 5 nM | 5 to 25 nM
Cc1ccc(C(=O)Nc2cncc(C(F)(F)F)c2)cc1OC1CN(c2cnn3cccnc23)C1 [Example 142, 4-methyl-3-((1-(pyrazolo[1,5-a]pyrimidin-3-yl)azetidin-3-yl)oxy)-N-(5-(trifluoromethyl)pyridin-3-yl)benzamide] | < 5 nM | 5 to 25 nM
Cc1ccc(C(=O)Nc2cc(C(C)(C)C)nn2C)cc1OC1CN(c2cnn3ccncc23)C1 [Example 163, N-(3-(tert-butyl)-1-methyl-1H-pyrazol-5-yl)-4-methyl-3-((1-(pyrazolo[1,5-a]pyrazin-3-yl)azetidin-3-yl)oxy)benzamide] | 5 to 25 nM | 5 to 25 nM
Cc1ccc(C(=O)Nc2cncc(C(F)(F)F)c2)cc1OC1CN(c2cnccc2C#N)C1 [Example 174, 3-((1-(4-cyanopyridin-3-yl)azetidin-3-yl)oxy)-4-methyl-N-(5-(trifluoromethyl)pyridin-3-yl)benzamide] | < 5 nM | < 5 nM
Cc1ccc(C(=O)Nc2cccc(CC(F)(F)F)c2)cc1OC1CN(c2cnn3ccncc23)C1 [Example 164, 4-methyl-3-((1-(pyrazolo[1,5-a]pyrazin-3-yl)azetidin-3-yl)oxy)-N-(3-(2,2,2-trifluoroethyl)phenyl)benzamide] | < 5 nM | < 5 nM
Cc1ccc(C(=O)Nc2cc(C(C)(C)C)n(C)n2)cc1OC1CN(c2cnn3ccncc23)C1 [Example 154, N-(5-(tert-butyl)-1-methyl-1H-pyrazol-3-yl)-4-methyl-3-((1-(pyrazolo[1,5-a]pyrazin-3-yl)azetidin-3-yl)oxy)benzamide] | < 5 nM | < 5 nM
COc1ccc(C(F)(F)F)cc1NC(=O)c1ccc(C)c(OC2CN(c3cnn4ccncc34)C2)c1 [Example 153, N-(2-methoxy-5-(trifluoromethyl)phenyl)-4-methyl-3-((1-(pyrazolo[1,5-a]pyrazin-3-yl)azetidin-3-yl)oxy)benzamide] | < 5 nM | 5 to 25 nM
O=C(Nc1cncc(C(F)(F)F)c1)c1ccc(OC(F)F)c(OC2CN(c3cnn4ccncc34)C2)c1 [Example 182, 4-(difluoromethoxy)-3-((1-(pyrazolo[1,5-a]pyrazin-3-yl)azetidin-3-yl)oxy)-N-(5-(trifluoromethyl)pyridin-3-yl)benzamide] | < 5 nM | < 5 nM
Cc1ccc(C(=O)Nc2cncc(C(F)(F)F)c2)cc1OC1CN(c2cnc3cnccn23)C1 [Example 146, 3-((1-(imidazo[1,2-a]pyrazin-3-yl)azetidin-3-yl)oxy)-4-methyl-N-(5-(trifluoromethyl)pyridin-3-yl)benzamide] | < 5 nM | < 5 nM
Cc1ccc(C(=O)Nc2cncc(C(F)(F)F)c2)cc1OC1CN(c2cncc(C(N)=O)c2)C1 [Example 139, 5-(3-(2-methyl-5-((5-(trifluoromethyl)pyridin-3-yl)carbamoyl)phenoxy)azetidin-1-yl)nicotinamide] | – | 5 to 25 nM
Cc1ccc(C(=O)Nc2cncc(C(F)(F)F)c2)cc1NC1CN(c2cncnc2)C1 [Example 134, 4-methyl-3-((1-(pyrimidin-5-yl)azetidin-3-yl)amino)-N-(5-(trifluoromethyl)pyridin-3-yl)benzamide] | 5 to 25 nM | 25 to 100 nM
Cc1ccc(C(=O)Nc2cc(C(C)(C)C)n(C)n2)cc1NC1CN(c2cnn3ccncc23)C1 [Example 156, N-(5-(tert-butyl)-1-methyl-1H-pyrazol-3-yl)-4-methyl-3-((1-(pyrazolo[1,5-a]pyrazin-3-yl)azetidin-3-yl)amino)benzamide] | < 5 nM | 5 to 25 nM
Cc1ccc(C(=O)Nc2cncc(C(F)(F)F)c2)cc1NC1CN(c2cncc(-c3cnn(C)c3)c2)C1 [Example 144, 4-methyl-3-((1-(5-(1-methyl-1H-pyrazol-4-yl)pyridin-3-yl)azetidin-3-yl)amino)-N-(5-(trifluoromethyl)pyridin-3-yl)benzamide] | < 5 nM | 5 to 25 nM
Cc1ccc(C(=O)Nc2cncc(C(F)(F)F)c2)cc1C(C)C1CN(c2cnn3ccncc23)C1 (centres unmarked) [Example 172, 4-methyl-3-(1-(1-(pyrazolo[1,5-a]pyrazin-3-yl)azetidin-3-yl)ethyl)-N-(5-(trifluoromethyl)pyridin-3-yl)benzamide] | < 5 nM | 5 to 25 nM
Cc1ccc(C(=O)Nc2cncc(C(F)(F)F)c2)cc1C(C)C1CN(c2cnn3ccncc23)C1 (centres unmarked) [Example 175, 4-methyl-3-(1-(1-(pyrazolo[1,5-a]pyrazin-3-yl)azetidin-3-yl)ethyl)-N-(5-(trifluoromethyl)pyridin-3-yl)benzamide] | – | 5 to 25 nM
Cc1ccc(C(=O)Nc2cncc(C(F)(F)F)c2)cc1C(C)C1CN(c2cnn3ccncc23)C1 (centres unmarked) [Example 176, 4-methyl-3-(1-(1-(pyrazolo[1,5-a]pyrazin-3-yl)azetidin-3-yl)ethyl)-N-(5-(trifluoromethyl)pyridin-3-yl)benzamide] | – | 5 to 25 nM
